# Measured values from patent US6815421B1, “Polypeptides for use in ameliorating effects of aging in mammals” (Osteopharm Inc., priority 2001, dated 2004).
# Assay: Body weight and DEXA body composition in aging intact and ovariectomized rats treated with polypeptide
# Assay type: in vivo, female Sprague-Dawley rats
# Details: for increase in bone mineral content / increase in body fat content: DEXA
# Protocol: Experiments were conducted using female Sprague-Dawley rats that were about 5 months old at the beginning of the experiments. The rats were obtained from Vivarium of the University of Toronto, Mississauga, Ontario, Canada.
# The rats were housed in pairs in either a standard shoebox cage 15 cm in height (low cage) or a cage with 22 cm height (tall cage). Humidity was maintained at 50%; temperature 22° C.; dark/light cycle of 12 hours. The rats were fed Standard Purina Rat Chow (unlimited daily supply) and tap water ad libitum.
# Ovariectomies were performed under general isofluorane anaesthesia. A 1.5 cm dorsal midline incision was made. The skin and subcutaneous tissue were separated by blunt dissection. A small incision was made on either side in the posterior abdominal muscle wall (approximately 0.5 cm) to expose the ovaries. The ovaries were removed together with the proximal ends of the Fallopian tubes after the ligation of the ovarian arteries. The wounds in the abdominal muscle wall were not stitched. The dorsal skin wound was closed by three surgical wound clips. Tamgesic (0.2 ml) was given subcutaneously for the relief of pain immediately after the operation.
# Body weight measurements were made by direct weighing with an electronic balance (to 0.01 g) and by DEXA measurement, Instrument: Hologic 4500A with program for regional measurement for small animals. The animals were scanned supine under general isofluorane anaesthesia. The whole body was scanned including the whole tail. The weights for the mineral content, the fat content and the lean body mass were summed to obtain total body weight.
# Non-treated (control) animals were injected subcutaneously daily with 400 μL of 20 mM sodium acetate (pH 4.5) 5 days per week. Treated animals were injected subcutaneously with 300 nmoles per kg of body weight of the test polypeptide (SEQ ID NO:1) in 400 μL of 20 mM sodium acetate (pH 4.5) daily five days per week. The treatment period was nine months. The material, chemically synthesized, was obtained from the Protein DNA Core facility of Queen's University, Kingston, Ontario, Canada. Purification, by HPLC, indicated the test compound to be at least 95% pure.
# DEXA measurements were evaluated as an indication of body composition. Through the attenuation of X-ray energy DEXA measurements provide an indication of the mass of various body tissues. In the Hologic DEXA instrument, the program measures the mass of bone tissue, fat and lean body mass (largely muscle mass). The sum of these measured masses represents total body mass. If this proposition is correct, then the total body mass measured by DEXA and measured directly by balance will be the same. Over the course of these experiments, 677 paired measurements of the body weight were made using the two methods. The results obtained (FIG. 1) indicate that there is a close relationship between the DEXA measurements and the measurements. It was thus concluded that body composition could be assessed using DEXA measurements.
# Eight groups of rats were treated as follows:
# Ovariectomies were performed at the age of 5 months. The ovariectomized animals were allowed to lose bone for two months following ovariectomy before the treatment began. A baseline measurement was made immediately prior to operation. Another pretreatment baseline measurement was made at the beginning of treatment, i.e. two months after ovariectomization. Measurements were made approximately monthly thereafter. At the end of the experiments, all animals were sacrificed by carbon dioxide narcosis.
# Procedures were carried out according to the following schedule: […]
substance,measurement,setting,value
"Xaa1-Thr-GIn-Glu-His-Thr-Ala-Glu-Cys-Xaa10, where Xaa1 is N-acetyl arginine and Xaa10 is lysinamide (Ac-RTQEHTAECK-NH2) [SEQ ID NO:1, 10-mer, protected at both ends]",change in lean body mass,"all groups of rats (intact and ovariectomized, treated and untreated), 10-month experimental period, FIGS. 6A to 7B",relatively small change
same,increase in bone mineral content,"intact rats, FIG. 8",attenuation of the increase
same,increase in body fat content,"intact rats, vs untreated (control) rats, reduction greatest in tall cages, FIG. 4",reduced
same,age-related gain in total body weight,"intact rats, tall and low cages, 300 nmoles per kg s.c. daily five days per week, vs untreated, FIG. 2",lower age-related gain
same,change in BMC/BW ratio with time,"intact rats, tall and low cages, vs untreated, FIGS. 10 and 11",changed much less
same,change in LBM/BW ratio with time,"intact rats, tall and low cages, vs untreated, FIGS. 14 and 15",changed much less
same,attenuating effect on change in LBM/BW ratio over time,"ovariectomized rats compared with intact rats, FIGS. 14 to 17",greater for intact rats than it was for ovariectomized rats
same,increase in body fat content,"ovariectomized rats housed in low cages, FIG. 5",less so
same,increase in body fat content,"ovariectomized rats housed in taller cages, FIG. 5",significantly smaller increase
same,increase in bone mineral content,"ovariectomized rats, FIG. 9",attenuation of the increase
same,overall weight gain,"ovariectomized rats, tall and low cages, 300 nmoles per kg s.c. daily five days per week, vs untreated, FIG. 3",relative decrease in overall weight gain
same,attenuating effect on decrease in BMC/BW ratio with time,"ovariectomized rats, tall and low cages, compared with intact rats, FIGS. 12 and 13",less pronounced
